Results from PubChem BioAssay AID2060489 (Molecular Pharmacology Branch, DTP, NCI, 2025).

System: 922993-354-T-J3-PDC complex spheroids, viability
Experiment: Anticancer human tumor 922993-354-T-J3-PDC patient-derived endometrial carcinoma cell line growth inhibition [GQUAD]
Conditions: for IC50: curve of first compound; for viability, T/C: stronger effect = lower value
Outline: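 Tumor cells were grown as complex spheroids with HUVEC endothelial cells and mesenchymal stem cells as stroma. G-quadruplex stabilizers were combined with targeted agents over half-log dilutions from near the clinical Cmax, or from 10 microM.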

[1] = second compound 0.0316 µM, first compound 0.0316 µM
[2] = second compound 0.0316 µM, first compound 0.1 µM
[3] = second compound 0.0316 µM, first compound 0.316 µM
[4] = second compound 0.0316 µM, first compound 1 µM
[5] = second compound 0.0316 µM, first compound 3.16 µM
[6] = second compound 0.0316 µM, first compound 10 µM
[7] = second compound 0.1 µM, first compound 0.0316 µM
[8] = second compound 0.1 µM, first compound 0.1 µM
[9] = second compound 0.1 µM, first compound 0.316 µM
[10] = second compound 0.1 µM, first compound 1 µM
[11] = second compound 0.1 µM, first compound 3.16 µM
[12] = second compound 0.1 µM, first compound 10 µM
[13] = second compound 0.316 µM, first compound 0.0316 µM
[14] = second compound 0.316 µM, first compound 0.1 µM
[15] = second compound 0.316 µM, first compound 0.316 µM
[16] = second compound 0.316 µM, first compound 1 µM
[17] = second compound 0.316 µM, first compound 3.16 µM
[18] = second compound 0.316 µM, first compound 10 µM
[19] = second compound 1 µM, first compound 0.0316 µM
[20] = second compound 1 µM, first compound 0.1 µM
[21] = second compound 1 µM, first compound 0.316 µM
[22] = second compound 1 µM, first compound 1 µM
[23] = second compound 1 µM, first compound 3.16 µM
[24] = second compound 1 µM, first compound 10 µM
[25] = second compound 3.16 µM, first compound 0.0316 µM
[26] = second compound 3.16 µM, first compound 0.1 µM
[27] = second compound 3.16 µM, first compound 0.316 µM
[28] = second compound 3.16 µM, first compound 1 µM
[29] = second compound 3.16 µM, first compound 3.16 µM
[30] = second compound 3.16 µM, first compound 10 µM
[31] = second compound 10 µM, first compound 0.0316 µM
[32] = second compound 10 µM, first compound 0.1 µM
[33] = second compound 10 µM, first compound 0.316 µM
[34] = second compound 10 µM, first compound 1 µM
[35] = second compound 10 µM, first compound 3.16 µM
[36] = second compound 10 µM, first compound 10 µM
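Also: spheroids exposed to compounds for seven days.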
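For viability, T/C in this document: 100% = DMSO vehicle control viability.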

COc1cccc2c1C(=O)c1c(O)c3c(c(O)c1C2=O)CC(O)(C(=O)CO)CC3OC1CC(N)C(O)C(C)O1 (stereo not drawn) + Cc1[nH]c2ccc(F)cc2c1-c1nc2c3cccnc3c3ncccc3c2[nH]1
IC50 (second compound 0.0316 µM): 9.8 µM | IC50 (second compound 0.1 µM): > 10 µM | IC50 (second compound 0.316 µM): > 10 µM | IC50 (second compound 1 µM): > 10 µM | IC50 (second compound 3.16 µM): > 10 µM | IC50 (second compound 10 µM): 9.33 µM | viability, T/C [1]: 120% | viability, T/C [2]: 114% | viability, T/C [3]: 99.5% | viability, T/C [4]: 83.7% | viability, T/C [5]: 76.3% | viability, T/C [6]: 46.1% | viability, T/C [7]: 118% | viability, T/C [8]: 96% | viability, T/C [9]: 86.7% | viability, T/C [10]: 66.3% | viability, T/C [11]: 105% | viability, T/C [12]: 56.1% | viability, T/C [13]: 96.5% | viability, T/C [14]: 105% | viability, T/C [15]: 92.6% | viability, T/C [16]: 94.1% | viability, T/C [17]: 73.2% | viability, T/C [18]: 56.1% | viability, T/C [19]: 122% | viability, T/C [20]: 91.4% | viability, T/C [21]: 72.3% | viability, T/C [22]: 80.1% | viability, T/C [23]: 81.3% | viability, T/C [24]: 53.8% | viability, T/C [25]: 120% | viability, T/C [26]: 73.8% | viability, T/C [27]: 71.4% | viability, T/C [28]: 88.7% | viability, T/C [29]: 74.6% | viability, T/C [30]: 46.9% | viability, T/C [31]: 97.2% | viability, T/C [32]: 81.8% | viability, T/C [33]: 89% | viability, T/C [34]: 98.4% | viability, T/C [35]: 103% | viability, T/C [36]: 47.1%

Cc1cccc(N(C)C(=O)C2C(O)CCN2c2nc(C)cc(C(F)(F)F)c2C#N)c1 (stereo not drawn) + Cc1[nH]c2ccc(F)cc2c1-c1nc2c3cccnc3c3ncccc3c2[nH]1
IC50 (second compound 0.0316 µM): > 10 µM | IC50 (second compound 0.1 µM): > 10 µM | IC50 (second compound 0.316 µM): > 10 µM | IC50 (second compound 1 µM): > 10 µM | IC50 (second compound 3.16 µM): > 10 µM | IC50 (second compound 10 µM): > 10 µM | viability, T/C [1]: 111% | viability, T/C [2]: 112% | viability, T/C [3]: 80.8% | viability, T/C [4]: 94% | viability, T/C [5]: 120% | viability, T/C [6]: 82.9% | viability, T/C [7]: 108% | viability, T/C [8]: 122% | viability, T/C [9]: 97.7% | viability, T/C [10]: 135% | viability, T/C [11]: 120% | viability, T/C [12]: 126% | viability, T/C [13]: 90.7% | viability, T/C [14]: 112% | viability, T/C [15]: 74.7% | viability, T/C [16]: 104% | viability, T/C [17]: 87.9% | viability, T/C [18]: 99.3% | viability, T/C [19]: 112% | viability, T/C [20]: 96.5% | viability, T/C [21]: 104% | viability, T/C [22]: 114% | viability, T/C [23]: 102% | viability, T/C [24]: 97.3% | viability, T/C [25]: 123% | viability, T/C [26]: 121% | viability, T/C [27]: 103% | viability, T/C [28]: 96.9% | viability, T/C [29]: 129% | viability, T/C [30]: 73.8% | viability, T/C [31]: 87% | viability, T/C [32]: 94.3% | viability, T/C [33]: 109% | viability, T/C [34]: 111% | viability, T/C [35]: 95.4% | viability, T/C [36]: 123%

Cn1ncnc1[C@H]1c2n[nH]c(=O)c3cc(F)cc(c23)N[C@@H]1c1ccc(F)cc1 + Cc1[nH]c2ccc(F)cc2c1-c1nc2c3cccnc3c3ncccc3c2[nH]1
IC50 (second compound 0.0316 µM): > 0.316 µM | IC50 (second compound 0.1 µM): > 0.316 µM | IC50 (second compound 0.316 µM): > 0.316 µM | IC50 (second compound 1 µM): > 0.316 µM | IC50 (second compound 3.16 µM): > 0.316 µM | IC50 (second compound 10 µM): > 0.316 µM | viability, T/C (second compound 0.0316 µM, first compound 0.000999 µM): 102% | viability, T/C (second compound 0.0316 µM, first compound 0.00316 µM): 100% | viability, T/C (second compound 0.0316 µM, first compound 0.00999 µM): 83.8% | viability, T/C [1]: 88% | viability, T/C (second compound 0.0316 µM, first compound 0.0999 µM): 85% | viability, T/C [3]: 61.5% | viability, T/C (second compound 0.1 µM, first compound 0.000999 µM): 92.4% | viability, T/C (second compound 0.1 µM, first compound 0.00316 µM): 85.4% | viability, T/C (second compound 0.1 µM, first compound 0.00999 µM): 80.8% | viability, T/C [7]: 97.5% | viability, T/C (second compound 0.1 µM, first compound 0.0999 µM): 80.1% | viability, T/C [9]: 54.1% | viability, T/C (second compound 0.316 µM, first compound 0.000999 µM): 100% | viability, T/C (second compound 0.316 µM, first compound 0.00316 µM): 98.6% | viability, T/C (second compound 0.316 µM, first compound 0.00999 µM): 108% | viability, T/C [13]: 111% | viability, T/C (second compound 0.316 µM, first compound 0.0999 µM): 122% | viability, T/C [15]: 64.9% | viability, T/C (second compound 1 µM, first compound 0.000999 µM): 110% | viability, T/C (second compound 1 µM, first compound 0.00316 µM): 82.8% | viability, T/C (second compound 1 µM, first compound 0.00999 µM): 100% | viability, T/C [19]: 97.1% | viability, T/C (second compound 1 µM, first compound 0.0999 µM): 93.3% | viability, T/C [21]: 69.6% | viability, T/C (second compound 3.16 µM, first compound 0.000999 µM): 118% | viability, T/C (second compound 3.16 µM, first compound 0.00316 µM): 92.6% | viability, T/C (second compound 3.16 µM, first compound 0.00999 µM): 106% | viability, T/C [25]: 84.2% | viability, T/C (second compound 3.16 µM, first compound 0.0999 µM): 94.9% | viability, T/C [27]: 70.6% | viability, T/C (second compound 10 µM, first compound 0.000999 µM): 111% | viability, T/C (second compound 10 µM, first compound 0.00316 µM): 93% | viability, T/C (second compound 10 µM, first compound 0.00999 µM): 119% | viability, T/C [31]: 112% | viability, T/C (second compound 10 µM, first compound 0.0999 µM): 75% | viability, T/C [33]: 81.9%

O=C(c1cc(Cc2n[nH]c(=O)c3ccccc23)ccc1F)N1CCN(C(=O)C2CC2)CC1 + Cc1[nH]c2ccc(F)cc2c1-c1nc2c3cccnc3c3ncccc3c2[nH]1
IC50 (second compound 0.0316 µM): > 10 µM | IC50 (second compound 0.1 µM): > 10 µM | IC50 (second compound 0.316 µM): > 10 µM | IC50 (second compound 1 µM): > 10 µM | IC50 (second compound 3.16 µM): > 10 µM | IC50 (second compound 10 µM): > 10 µM | viability, T/C [1]: 107% | viability, T/C [2]: 113% | viability, T/C [3]: 98.3% | viability, T/C [4]: 102% | viability, T/C [5]: 89.5% | viability, T/C [6]: 81.1% | viability, T/C [7]: 108% | viability, T/C [8]: 119% | viability, T/C [9]: 88.3% | viability, T/C [10]: 99.5% | viability, T/C [11]: 124% | viability, T/C [12]: 95.5% | viability, T/C [13]: 93% | viability, T/C [14]: 90% | viability, T/C [15]: 72.6% | viability, T/C [16]: 115% | viability, T/C [17]: 102% | viability, T/C [18]: 118% | viability, T/C [19]: 91.5% | viability, T/C [20]: 100% | viability, T/C [21]: 108% | viability, T/C [22]: 92.3% | viability, T/C [23]: 92% | viability, T/C [24]: 68.3% | viability, T/C [25]: 81.1% | viability, T/C [26]: 98.3% | viability, T/C [27]: 89.7% | viability, T/C [28]: 88.1% | viability, T/C [29]: 97.9% | viability, T/C [30]: 88.8% | viability, T/C [31]: 106% | viability, T/C [32]: 110% | viability, T/C [33]: 88.2% | viability, T/C [34]: 80.2% | viability, T/C [35]: 101% | viability, T/C [36]: 83.7%
